This is an account of results in patent US10010619B2, “Bipartite inhibitors of bacterial RNA polymerase” (priority 2011, dated 2018).

As a reminder, the IC50 is the concentration at which inhibition is half-maximal. The MIC is the lowest concentration found to suppress growth.

Structures are written as SMILES. In brackets after ≈: the same amount, converted by molar mass. Like-named read-outs stand apart in the source and are kept apart here. Some results are limits rather than exact numbers.

The target of experiment [1] is T1, rifamycin-resistant Escherichia coli RNAP derivative ([Asn516]β-RNAP) (Escherichia coli, UniProt P0A8V2, D516N).
T1 construct: made in house
Briefly: Fluorescence-detected RNA polymerase assay, rifamycin-resistant RNAP derivative. It counts as biochemical. How it is done: (§1) Fluorescence-detected RNA polymerase assays with E. coli RNA polymerase were performed by a modification of the procedure of Kuhlman et al., 2004 [Kuhlman, P., Duff, H. and Galant, A. (2004) A fluorescence-based assay for multisubunit DNA-dependent RNA polymerases. Anal. Biochem. 324, 183-190]. Reaction mixtures contained (20 μl): 0-100 nM test compound, 75 nM Escherichia coli RNA polymerase σ^70 holoenzyme or Escherichia coli RNA polymerase σ^70 holoenzyme derivative (prepared as in Feklistov, A., Mekler, V., Jiang, Q., Westblade, L., Irschik, H., Jansen, R., Mustaev, A., Darst, S., and Ebright, R. (2008) Proc. Natl. Acad. Sci. USA 105, 14820-14825), 20 nM 384 bp DNA fragment containing the bacteriophage […] N25 promoter, 100 μM ATP, 100 μM GTP, 100 μM UTP, 100 μM CTP, 50 mM Tris-HCl, pH 8.0, 100 mM KCl, 10 mM MgCl2, 1 mM DTT, 10 μg/ml bovine serum albumin, and 5.5% glycerol. Reaction components other than DNA and NTPs were pre-incubated for 10 min at 37° C. Reactions were carried out by addition of DNA and incubation for 5 min at 37° C., followed by addition of NTPs and incubation for 60 min at 37° C. DNA was removed by addition of 1 μl 5 mM CaCl2 and 2 U DNaseI (Ambion, Inc.), followed by incubation for 90 min at 37° C. RNA was quantified by addition of 100 μl RiboGreen RNA Quantitation Reagent (Invitrogen, Inc.; 1:500 dilution in Tris-HCl, pH 8.0, 1 mM EDTA), followed by incubation for 10 min at 25° C., followed by measurement of fluorescence intensity [excitation wavelength=485 nm and emission wavelength=535 nm; QuantaMaster QM1 spectrofluorimeter (PTI, Inc.)]. IC50 is defined as the concentration of inhibitor resulting in 50% inhibition of RNA polymerase activity.

Experiment [2] has as its target T2, GE23077-resistant Escherichia coli RNAP derivative ([Asp565]β-RNAP) (Escherichia coli, UniProt P0A8V2, E565D).
T2 construct: made in house
The experiment in a line: biochemical. How it is done: as §1, with “Reactions were carried out by addition of DNA and incubation for 5 min at 37° C., followed by addition of NTPs and incubation for 60 min at 37° C. DNA was removed by addition of 1 μl 5 mM CaCl2 and 2 U DNaseI (Ambion, Inc.), followed by incubation for 90 min at 37° C.” left out, “IC50 is defined as the concentration of inhibitor resulting in 50% inhibition of RNA polymerase activity.” left out

Experiment [3] deals with Staphylococcus aureus ATCC 12600. The experiment in a line: Broth microdilution MIC, S. aureus. Type of experiment: cell-based. The conditions noted are these: ATCC12600. From the text: (§2) Minimum inhibitory concentrations (MICs) for Staphylococcus aureus ATCC 12600, Enterococcus faecalis ATCC 19433, Acinetobacter baumannii ATCC 19606, and Escherichia coli D21f2tolc (Fralick, J. and Burns-Keliher, L. (1994) J. Bacteriol. 176, 6404-6406) were quantified using broth microdilution assays as described [Clinical and Laboratory Standards Institute (CLSI/NCCLS) (2009) Methods for Dilution Antimicrobial Susceptibility Tests for Bacteria That Grow Aerobically; Approved Standard, Eighth Edition. CM Document M07-A8 (CLIS, Wayne Pa.)].

Experiment [4] has as its system Enterococcus faecalis ATCC 19433. Briefly: Broth microdilution MIC, E. faecalis. Type of experiment: cell-based. The conditions noted are these: ATCC19433.
Source text: as §2

Experiment [5] relates to Acinetobacter baumannii ATCC 19606. The experiment in a line: Broth microdilution MIC, A. baumannii. Type of experiment: cell-based. To be noted: ATCC19606.
Source text: as §2
(Dilution methods test growth across graded concentrations, often in twofold steps.)

The subject of experiment [6] is Escherichia coli D21f2tolC. The experiment in a line: Broth microdilution MIC, E. coli D21f2tolC. It counts as cell-based.
Source text: as §2

For the compound `CO[C@H]1/C=C/O[C@@]2(C)Oc3c(C)c(O)c4c(O)c(c(NC(C)C(C)C(=O)NCC5NC(=O)CNC(=O)C(O)CNC(=O)C(C(C)O)NC(=O)C(C(O)C(O)C(N)=O)NC(=O)C(C(C)C)CC(=O)C(CO)NC5=O)c(O)c4c3C2=O)NC(=O)/C(C)=C\C=C\[C@H](C)C(O)C(C)[C@@H](O)[C@@H](C)[C@H](OC(C)=O)[C@@H]1C` (stereo partly drawn) [compound 3, {rifamycin SV}-NH-{descarboxy-GE23077}], the IC50 in experiment [1] was 150 nM; in experiment [2], 20 nM. Moreover, in experiment [1] (ratio of IC50s, times higher than rifamycin SV), the “potency relative to rifamycin SV on [Asn516]β RNAP” value is given as 80 times. Further, the “potency relative to GE23077 on [Asp565]β RNAP” value in experiment [2] (ratio of IC50s, times higher than GE23077) is recorded as > 5,000 times. Also, the MIC came to 0.05 µg/mL (≈ 0.034 µM) in experiment [3], 6 µg/mL (≈ 4.08 µM) in experiment [4], 10 µg/mL (≈ 6.8 µM) in experiment [5] and 2 µg/mL (≈ 1.36 µM) in experiment [6].
As for `CO[C@H]1/C=C/O[C@@]2(C)Oc3c(C)c(O)c4c(O)c(cc(O)c4c3C2=O)NC(=O)/C(C)=C\C=C\[C@H](C)[C@H](O)[C@@H](C)[C@@H](O)[C@@H](C)[C@H](OC(C)=O)[C@@H]1C` [rifamycin SV, reference compound], the IC50 in experiment [1] (read-out: IC50, rifamycin-resistant derivative of Escherichia coli RNAP [Asn516]β RNAP) amounted to 12000 nM.
